# Measurements as given in US10899763B2, “Crystalline forms of salts of fused penta-cyclic dihydrodiazepinocarbazolones, and uses thereof” (BEIGENE, LTD., priority 2017, dated 2021).
# Like-named read-outs stand apart in the source and are kept apart here.
# Assays:
# [1] = system: MDA-MB-231 cells; assay: Synthetic lethality, CellTiter-Glo cell viability, MDA-MB-231; assay type: cell-based; conditions: Homo sapiens; MDA-MB-231, BRCA wildtype; read-out: EC50
# Method: MDA-MB-231 cells that is not BRCA gene mutant or other homologous recombination deficient were maintained in DMEM supplemented with fetal bovine serum (10% FBS), 100 units/ml penicillin and 0.1 mg/ml streptomycin. BRCA1-deficient cell line MDA-MB-436 was maintained in RPMI-1640 supplemented with 10% FBS, 100 units/ml penicillin and 0.1 mg/ml streptomycin. Both two cell lines were kept at 95% humidity and 5% CO2 in a 37° C. incubator.
# The number of tumor cells seeded per well of a 96-well plate was optimized for each cell line to ensure logarithmic growth over the 7 days treatment period. Cells were left to attach for 16 hours and then treated with specific concentrations of test compounds. Following a 7-day exposure to the compound, the growth-inhibitory activity of compounds was determined using CellTiter-Glo luminescent cell viability assay (Promega). Luminescent signal was measured using PHERAstar FS reader (BMG Labtech). Cell viability was expressed as relative to mock treatment control. EC50 values for growth inhibition were calculated by fitting dose-dependent data to the four-parameter logistic model using XLfit software.
# [2] = system: H209 SCLC xenograft; assay: H209 SCLC xenograft model, combination with TMZ; assay type: in vivo, mouse; conditions: combination of Compound 1 and TMZ, multiple cycles
# Excerpt: (§1) The in vivo efficacy of Compound 1 was explored in H209 SCLC xenograft model to evaluate the combination effect of Compound 1 and Temozolomide (TMZ), a DNA alkylating agent. TMZ single agent was quite effective in this model. […] However, resistance occurred quickly during the second cycle. […] In order to investigate whether Compound 1 could overcome the TMZ resistance, TMZ-resistant (TR) H209 tumors were generated by treating the H209 tumors with multiple cycles of TMZ in vivo. […] Mice with established intracranial H209 xenografts were used to further investigate the combination activity of Compound 1 and TMZ on SCLC in brain.
# [3] = system: TMZ-resistant (TR) H209 tumors; assay: TMZ-resistant H209-TR xenograft mouse model; assay type: in vivo; conditions: combination of Compound 1 and TMZ
# Excerpt: as §1
# [4] = system: intracranial H209 xenografts; assay: Intracranial H209 xenograft model; assay type: in vivo, Mice; conditions: addition of Compound 1 to TMZ
# Excerpt: as §1
# [5] = Brain penetration; conditions: in vivo
# [6] = Nonclinical toxicity, single and repeat dose up to 28 days, rats; assay type: in vivo
# [7] = Nonclinical toxicity, single and repeat dose up to 28 days, dogs; assay type: in vivo
# [8] = Ames assay; assay type: cell-based
# [9] = Pharmacokinetics in rat; assay type: in vivo
# Method: (§2) The species used for the pharmacokinetic studies were rat and dog. Compound 1 had good to excellent oral bioavailability (>40%) in both species. Elimination half-lives ranged from 3.1 to 5.0 hours in rats and 1.5 to 2.5 hours in dogs after oral administration. […] Steady state volume of distribution in rats and dogs was 2.4 L/kg and 1.9 L/kg, respectively.
# [10] = Pharmacokinetics in dog; assay type: in vivo
# Method: as §2
# [11] = Plasma protein binding, rat plasma; assay type: in vitro ADME
# [12] = Tissue distribution and excretion after oral administration in rats; assay type: in vivo
# Method: After oral administration in rats, Compound 1 was detected in all organs checked. The drug concentrations reached maximum at 0.25 to 1 hour post-dosing and decreased to less than 10% of the peak concentration at 24 hours post-dosing.
# Compound 1 was primarily excreted in feces. The accumulative excretion amounts of Compound 1 in feces were 15% to 20% (up to 48 hours) after oral administration. Less than 1% of Compound 1 was excreted in urine and bile in rats.
# [13] = Metabolism in human liver microsomes; assay type: in vitro ADME
# [14] = Metabolism in dog liver microsomes; assay type: in vitro ADME
# [15] = Metabolism in rat liver microsomes; assay type: in vitro ADME
# [16] = Metabolism in mouse liver microsomes; assay type: in vitro ADME
# [17] = Metabolism in monkey liver microsomes; assay type: in vitro ADME
# [18] = system: CYP isoform; assay: CYP isoforms responsible for metabolism; assay type: in vitro ADME
# [19] = system: human CYP1A2; assay: CYP induction, CYP1A2; assay type: in vitro ADME
# [20] = system: CYP2B6; assay: CYP induction, CYP2B6; assay type: in vitro ADME, human
# [21] = system: CYP3A; assay: CYP induction, CYP3A; assay type: in vitro ADME, human
# [22] = Phase I clinical safety study; assay type: in vivo; conditions: BRCA1/2 mutant ovary cancer patients
# [23] = system: BRCA1 mutation breast cancer xenograft; assay: BRCA1 mutation breast cancer xenograft model; assay type: in vivo; conditions: at much lower dose than olaparib
# [24] = system: PARP; conditions: for PARylation inhibition in tumor: 5.45 mg/kg single oral dose
structure (smiles),measurement,setting,value
"C[C@]12CCCN1CC1=NNC(=O)c3cc(F)cc4[nH]c2c1c34 [Compound 1, (R)-2-fluoro-10a-methyl-7,8,9,10,10a,11-hexahydro-5,6,7a,11-tetraazacyclohepta[def]cyclopenta-[a]fluoren-4(5H)-one]",EC50,[1],~9 µM
same,effect of combination with TMZ on resistance,[2],significantly delayed resistance without additional toxicity
same,sensitivity of H209-TR lines to combination with TMZ,[3],remained sensitive
same,animal survival compared to TMZ single agent,[4],significantly prolonged animal survival
same,brain penetration,[5],significant brain penetration
same,reversibility of toxicity,[6],reversible after 28-day recovery phase
same,major target organ of toxicity,[6]; up to 28 days,bone marrow
same,reversibility of toxicity,[7],reversible after 28-day recovery phase
same,major target organ of toxicity,[7]; up to 28 days,bone marrow
same,mutagenicity,[8],No mutagenicity
same,accumulation following multiple oral dosing,[9],no accumulation
same,accumulation following multiple oral dosing,[10],no accumulation
same,Plasma protein binding (PPB),[11],84.9%
same,excreted in urine and bile,[12],Less than 1%
same,drug concentration in organs as % of the peak concentration,"[12]; oral, 24 hours post-dosing",less than 10%
same,metabolism rate in liver microsomes,[13],metabolized slowly
same,metabolism rate in liver microsomes,[14],metabolized slowly
same,metabolism rate in liver microsomes,[15],metabolized slowly
same,metabolism rate in liver microsomes,[16],metabolized slowly
same,metabolism rate in liver microsomes,[17],quickly
same,major CYP isoform responsible for metabolism,[18],CYP3A
same,induction of human CYP1A2,[19],not an inducer
same,induction of human CYP2B6,[20],not an inducer
same,induction of human CYP3A,[21],not an inducer
same,clinical response,[22],partial or complete responses
same,tumor regression,[23],significantly induces tumor regression
same,PARylation inhibition in tumor,[24]; 0.5 hour after treatment,98%
same,PARylation inhibition in tumor,[24]; at 24 hours,53%
same,PARylation inhibition in tumor,[24]; through the first 12 hours,> 80%
same,single oral dose at which potent inhibition of PARylation was observed,[24]; at 4 hours after single oral dose,≥ 0.34 mg/kg
same,concentration in tumor tissues needed to achieve at least 80% PARylation inhibition,[24]; dose titration and time course study,over 0.5 μmol/kg
